Experimental data from patent US20240208939A1, “TREATMENT OF AUTOIMMUNE AND INFLAMMATORY DISORDERS WITH INHIBITORS OF BET FAMILY BDII BROMODOMAIN” (POSEIDON INNOVATION 1, INC., priority 2022, published 2024).

Legend:
BRD4 BD2 = target: T1, BRD4 BD2 (Homo sapiens, UniProt O60885); assay: Target Engagement Intracellular BET BRD Assay (NanoBRET); type: cell-based; conditions: read-out: BRD4 BD2 TE IC50
T1 construct: BD2 TE; expressed in transfected cells
Procedure: 3× Complete Substrate plus Inhibitor Solution in Assay Medium (Opti-MEM® I Reduced Serum Medium, no phenol red, and no serum) was prepared just before measuring BRET. This solution consisted of a 1:166 dilution of NanoBRET™ Nano-Glo® Substrate plus a 1:500 dilution of Extracellular NanoLuc® Inhibitor in Assay Medium. For a 96-well plate, 30 μl of NanoBRET™ Nano-Glo® Substrate, 10 μl of Extracellular NanoLuc® Inhibitor and 4,960 μl of Assay Medium were mixed to produce 5 ml of 3× Complete Substrate plus Inhibitor Solution, followed with gently mixing by inversion 5-10 times in a conical tube. (The final concentration of Extracellular NanoLuc® Inhibitor in the 3× solution was 60 μM, for a working concentration of 20 μM. Use 3× Complete Substrate plus Inhibitor Solution within 2 hours. Discard any remaining solution).
50 μl of 3× Complete Substrate plus Inhibitor Solution were added to each well of the 96-well plate, followed by incubation for 2-3 minutes at room temperature. Donor emission wavelength (e.g., 450 nm) and acceptor emission wavelength (e.g., 610 nm) were measured by using the GloMax® Discover System or other NanoBRET™ Assay-compatible luminometer (it is recommended measuring BRET within 10 minutes after adding NanoBRET™ Nano-Glo™ Substrate plus Extracellular NanoLuc® Inhibitor Solution. However, BRET can be measured for up to 2 hours, but there will be some loss of luminescence signal).
To generate raw BRET ratio values, the acceptor emission value (e.g., 610 nm) was divided by the donor emission value (e.g., 450 nm) for each sample [to correct for background, the BRET ratio was substracted in the absence of tracer (average of no-tracer control samples) from the BRET ratio of each sample]. Raw BRET units were converted to milliBRET units (mBU) by multiplying each raw BRET value by 1,000. NanoBRET™ ratio equation, including optional background correction is shown below:
BRET Ratio=[(Acceptorsample÷Donorsample)−(Acceptorno-tracer control÷Donorno-tracer control)]×1,000.

MCP-1 = assay: PBMC MCP-1 HTRF Assay; type: cell-based; conditions: LPS 200 ng/mL, 24 hours
Procedure: The cryopreserved PBMC cells were thawed in a 37° C. water bath immediately after taking out from liquid nitrogen storage. A sterile pipette was used to transfer the content to sterile […] centrifuge tube containing […] of complete growth medium (Gibico 1640) and centrifuge at 300×g for 10 min. Supernatant was discarded, and cell pellet was resuspended in 10 mL of complete growth media in a sterile 15 mL tube. The cells were rested for 1 h at 37° C. (1×10^6 cells/mL). The cells were spinned down at 300×g for 10 minutes after 1 h. Supernatant was discard, and cell pellet was resuspended in complete growth medium, the cells number and viability were measured by AO/PI staining. In a 384-well white plate, PBMCs at 25 k cells/well (15 μl per well) were seeded with Gibico 1640 medium. The compound stock was serial diluted into […] by 3-fold dilution. 20 nL DMSO, 20 nL test compounds DMSO stock (serial diluted) were transferred in assay plate by using ECHO550, incubate for 30 min at 37° C., 5% CO2. LPS was diluted by Gibico 1640 medium.add 5 μl per well. The final concentration (200 ng/mL) was incubated for 24 hours at 37° C. with 5% CO2.
For MCP-1 HTRF, 2.5 μl/well MCP-1 donor antibody and 2.5 μl/well MCP-1 acceptor antibody were added into 384 well plate, following by centrifuging at 190×g for 1 min and incubating at room temperature for 2 h. The plate was read on the Envision.

[1] = system: IMQ-mouse model of psoriasis; assay: IMQ induced psoriasis mouse model, PASI scoring; type: in vivo, mice; conditions: daily dosing po, compared to vehicle treatment
Procedure: Except for the control group, all other groups received a daily topical dose of 60 mg of 5% commercially available IMQ cream on the shaved back for 7 consecutive days. The same amount of Vaseline was applied to the same areas of the animals in the negative control group. Vehicle and DF-6129 were dosed daily (po) for 8 days, from Day −1 to Day 7. Dosing time: 1 hour prior to IMQ application. Psoriasis Area and Severity Index (PASI) Scoring The Psoriasis Area and Severity Index (PASI) scoring system was used to evaluate the severity of skin inflammation of the mouse model. Erythema, scaling, and skin thickness was scored independently from 0-4 as (daily scoring) as below: [table] All statistical analysis were conducted, and the level of significance was set at P<0.05. The group means and standard deviation were calculated for all measurement parameters as study designed. One-way ANOVA comparisons among the groups was performed with software SPSS 16.0.

IL-17 = assay: Serum IL-17 ELISA in IMQ-mouse model of psoriasis; type: in vivo, mice; conditions: compared to vehicle treatment alone, 4 h post last dosing on day 7
Procedure: Except for the control group, all other groups received a daily topical dose of 60 mg of 5% commercially available IMQ cream on the shaved back for 7 consecutive days. The same amount of Vaseline was applied to the same areas of the animals in the negative control group. Vehicle and DF-6129 were dosed daily (po) for 8 days, from Day −1 to Day 7. Dosing time: 1 hour prior to IMQ application. Animals were euthanized 4 h post last dosing on day 7 (3 h after applying with imiquimod cream). Whole Blood was collected via cardiac puncture from all group animals. Serum samples were separated by centrifugation at 4° C. at 8000 g for 5 minutes, total 70 samples. All serum samples were stored at −80° C. for IL-17 analysis. All statistical analysis were conducted, and the level of significance was set at P<0.05. The group means and standard deviation were calculated for all measurement parameters as study designed. One-way ANOVA comparisons among the groups was performed with software SPSS 16.0.

IL-17A = assay: Back skin PCR analysis in IMQ-treated mice, IL-17A mRNA; type: in vivo; conditions: 10 mg/kg, compared with vehicle treatment alone
Procedure: (§1) Except for the control group, all other groups received a daily topical dose of 60 mg of 5% commercially available IMQ cream on the shaved back for 7 consecutive days. The same amount of Vaseline was applied to the same areas of the animals in the negative control group.
(§2) Vehicle and DF-6129 were dosed daily (po) for 8 days, from Day −1 to Day 7. Dosing time: 1 hour prior to IMQ application.
(§3) Animals were euthanized 4 h post last dosing on day 7 (3 h after applying with imiquimod cream) and back skin was be collected. The skin tissues were divided into two parts. One half was flash frozen and stored at −80° C. for PCR analysis (IL-17A, IL-17F, IL-22 and IL-23), the other half was fixed in 10% formalin for HE staining and scoring.
(§4) All statistical analysis were conducted, and the level of significance was set at P<0.05. The group means and standard deviation were calculated for all measurement parameters as study designed. One-way ANOVA comparisons among the groups was performed with software SPSS 16.0.

IL-22 = assay: Back skin PCR analysis in IMQ-treated mice, IL-22 mRNA; type: in vivo; conditions: 10 mg/kg, compared with vehicle treatment alone
Procedure: as §1, §2, §3, §4

IL-23 = assay: Back skin PCR analysis in IMQ-treated mice, IL-23 mRNA; type: in vivo; conditions: 10 mg/kg, compared with vehicle treatment alone
Procedure: as §1, §2, §3, §4

IL-17A, IL17F and IL-22 = conditions: Gilan et al. 2020; cited from earlier work

## Cn1ccn(-c2ccc(-c3cc(F)cc(-c4cccc(N5CCN(C(C)(C)C)CC5)c4)c3O)cc2Cl)c1=O [Example I-1, 1-(3″-(4-(tert-butyl)piperazin-1-yl)-3-chloro-5′-fluoro-2′-hydroxy-[1,1′:3′,1″- terphenyl]-4-yl)-3-methyl-1,3-dihydro-2H-imidazol-2-one]
BRD4 BD2
  IC50: 0.323 nM
MCP-1
  IC50: 1.51 nM
[1]
  erythema: significant decreases
  scaling: significant decreases
  skin thickening: significant decreases
  total psoriasis (PASI) score: significantly reduced
IL-17
  serum IL-17 levels: significantly reduced
IL-17A
  mRNA levels of IL-17A from the back skin: significantly reduced
IL-22
  mRNA levels of IL-22 from the back skin: significantly reduced
IL-23
  mRNA levels of IL-23 from the back skin: significantly reduced

## CNC(=O)c1cc(C(=O)NC2CC2)cn(Cc2ccccc2)c1=O [GSK620]
IL-17A, IL17F and IL-22
  expression of disease relevant pro-inflammatory genes, including IL-17A, IL17F and IL-22: reduced the expression
